Experimental data as given in paper PMC7044277 (Nature Communications, 2020).
Several values for one entry are separate records, joined by “and”; a condition that tells them apart may be missing. Identical values can stand only once.

Legend:
DRD2 W100ECL1F = target: T1, DRD2 W100ECL1F (Homo sapiens, UniProt P14416, W100F); format: binding; conditions: DRD2 W100ECL1F vs wild-type
T1 construct: expressed in transfected cells; host or cells: HEK293T (ATCC CRL-11268)

DRD2 L942.64A = target: T2, DRD2 L942.64A (Homo sapiens, UniProt P14416, L94A); format: binding; conditions: DRD2 L942.64A vs DRD2 wild-type
T2 construct: expressed in transfected cells; host or cells: HEK293T (ATCC CRL-11268)

DRD2 F1103.28C = target: T3, DRD2 F1103.28C (Homo sapiens, UniProt P14416, F110C); format: binding; conditions: DRD2 F1103.28C vs wild-type
T3 construct: expressed in transfected cells; host or cells: HEK293T (ATCC CRL-11268)

DRD2 F1103.28L = target: T4, DRD2 F1103.28L (Homo sapiens, UniProt P14416, F110L); format: binding
T4 construct: expressed in transfected cells; host or cells: HEK293T (ATCC CRL-11268)

DRD2 V1113.29A = target: T5, DRD2 V1113.29A (Homo sapiens, UniProt P14416, V111A); format: binding; conditions: DRD2 V1113.29A vs wild-type
T5 construct: expressed in transfected cells; host or cells: HEK293T (ATCC CRL-11268)

DRD3 wild-type = DRD3 wild-type (Homo sapiens, UniProt P35462); experiment: Radioligand competition binding, [3H]-N-methylspiperone; set-up: Fig_1a competition binding curve, source data: unit not given here; conditions: for Fig_1a competition binding curve, source data: Log [L-741626]
[1] = target: T6, DRD4 (D4.4 variant) wild-type (Homo sapiens, UniProt P21917); experiment: as above; conditions: for Fig_1a competition binding curve, source data: Log [L-741626]
T6 sequence (P21917 1-419): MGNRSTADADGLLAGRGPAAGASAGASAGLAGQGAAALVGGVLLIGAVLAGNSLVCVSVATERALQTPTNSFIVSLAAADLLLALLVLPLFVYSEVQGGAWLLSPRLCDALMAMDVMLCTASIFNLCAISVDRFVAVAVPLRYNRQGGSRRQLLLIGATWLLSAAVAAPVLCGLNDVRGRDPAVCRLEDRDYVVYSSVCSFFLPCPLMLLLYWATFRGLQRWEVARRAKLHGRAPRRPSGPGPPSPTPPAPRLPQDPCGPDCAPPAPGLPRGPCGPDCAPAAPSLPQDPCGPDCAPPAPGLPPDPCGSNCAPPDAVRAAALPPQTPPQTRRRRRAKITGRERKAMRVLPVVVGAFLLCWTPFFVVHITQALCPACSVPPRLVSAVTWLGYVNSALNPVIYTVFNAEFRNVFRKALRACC

DRD2 Y4087.35A = target: T7, DRD2 Y4087.35A (Homo sapiens, UniProt P14416, Y408A); format: binding; conditions: DRD2 Y4087.35A vs wild-type
T7 construct: expressed in transfected cells; host or cells: HEK293T (ATCC CRL-11268)

DRD3 F1063.28A = DRD3 F1063.28A (Homo sapiens, UniProt P35462, F106A); experiment: biochemical; format: binding
DRD2 F1103.28W = target: T8, DRD2 F1103.28W (Homo sapiens, UniProt P14416, F110W); format: binding
T8 construct: expressed in transfected cells; host or cells: HEK293T (ATCC CRL-11268)

DRD2 F1103.28Y = target: T9, DRD2 F1103.28Y (Homo sapiens, UniProt P14416, F110Y); format: binding
T9 construct: expressed in transfected cells; host or cells: HEK293T (ATCC CRL-11268)

DRD2 F1103.28A = DRD2 F1103.28A (Homo sapiens, UniProt P14416, F110A); format: binding; set-up: expressed in transfected cells; host or cells: HEK293T (ATCC CRL-11268)
DRD2 F1103.28E = target: T10, DRD2 F1103.28E (Homo sapiens, UniProt P14416, F110E); format: binding; conditions: DRD2 F1103.28E vs wild-type
T10 construct: expressed in transfected cells; host or cells: HEK293T (ATCC CRL-11268)

DRD2 W100EL1A = target: T11, DRD2 W100EL1A (Homo sapiens, UniProt P14416, W100A); format: binding; conditions: DRD2 W100EL1A vs wild-type
T11 construct: expressed in transfected cells; host or cells: HEK293T (ATCC CRL-11268)

[2] = target: DRD2 (D2 long receptor) wild-type (Homo sapiens, UniProt P14416); experiment: Radioligand competition binding, [3H]-N-methylspiperone, HEK293T membranes; set-up: Fig_1a competition binding curve, source data: unit not given here; conditions: Log [L-741626]
Sequence of DRD2 (D2 long receptor) wild-type (P14416 whole entry): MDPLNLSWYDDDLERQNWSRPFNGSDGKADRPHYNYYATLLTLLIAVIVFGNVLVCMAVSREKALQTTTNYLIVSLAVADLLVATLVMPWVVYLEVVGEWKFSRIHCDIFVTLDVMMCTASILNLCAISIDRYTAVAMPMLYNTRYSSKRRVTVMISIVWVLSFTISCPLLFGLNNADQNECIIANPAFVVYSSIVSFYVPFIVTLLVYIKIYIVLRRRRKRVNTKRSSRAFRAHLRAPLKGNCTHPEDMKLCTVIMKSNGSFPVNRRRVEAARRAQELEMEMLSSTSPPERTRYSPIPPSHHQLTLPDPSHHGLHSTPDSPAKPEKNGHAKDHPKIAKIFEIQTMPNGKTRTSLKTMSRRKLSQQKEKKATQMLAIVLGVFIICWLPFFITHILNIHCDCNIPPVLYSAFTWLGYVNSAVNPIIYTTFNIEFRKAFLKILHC

Sequence of DRD3 wild-type (P35462 whole entry): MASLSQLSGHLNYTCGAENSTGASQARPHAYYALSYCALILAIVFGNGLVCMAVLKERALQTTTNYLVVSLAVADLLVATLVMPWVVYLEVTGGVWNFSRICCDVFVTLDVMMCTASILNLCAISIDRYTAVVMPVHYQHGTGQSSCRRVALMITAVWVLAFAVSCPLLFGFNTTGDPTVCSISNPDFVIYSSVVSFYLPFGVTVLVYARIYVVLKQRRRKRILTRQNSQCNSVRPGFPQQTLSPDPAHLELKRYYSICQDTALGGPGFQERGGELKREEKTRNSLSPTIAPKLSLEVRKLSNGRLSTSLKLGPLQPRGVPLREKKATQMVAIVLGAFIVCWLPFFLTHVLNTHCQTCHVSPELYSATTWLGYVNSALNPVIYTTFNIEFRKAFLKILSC
Sequence of DRD3 F1063.28A (P35462 whole entry F106A): as the sequence (P35462 whole entry) above, with F106A counted along it
T8 sequence (P14416 whole entry F110W): as the sequence (P14416 whole entry) above, with F110W counted along it
Sequence of DRD2 F1103.28A (P14416 whole entry F110A): as the sequence (P14416 whole entry) above, with F110A counted along it
T9 sequence (P14416 whole entry F110Y): as the sequence (P14416 whole entry) above, with F110Y counted along it
T4 sequence (P14416 whole entry F110L): as the sequence (P14416 whole entry) above, with F110L counted along it
T10 sequence (P14416 whole entry F110E): as the sequence (P14416 whole entry) above, with F110E counted along it
T5 sequence (P14416 whole entry V111A): as the sequence (P14416 whole entry) above, with V111A counted along it
T1 sequence (P14416 whole entry W100F): as the sequence (P14416 whole entry) above, with W100F counted along it
T11 sequence (P14416 whole entry W100A): as the sequence (P14416 whole entry) above, with W100A counted along it
T7 sequence (P14416 whole entry Y408A): as the sequence (P14416 whole entry) above, with Y408A counted along it
T3 sequence (P14416 whole entry F110C): as the sequence (P14416 whole entry) above, with F110C counted along it
T2 sequence (P14416 whole entry L94A): as the sequence (P14416 whole entry) above, with L94A counted along it

SMILES: OC1(c2ccc(Cl)cc2)CCN(Cc2c[nH]c3ccccc23)CC1 [L-741626]
- ΔpKi (mutant-WT) (DRD2 W100ECL1F): -0.85
- ΔpKi (mutant-WT) (DRD2 L942.64A): -0.45
- ΔpKi (mutant-WT) (DRD2 F1103.28C): 0.61
- ΔpKi (mutant-WT) (DRD2 F1103.28L; DRD2 F1103.28L vs wild-type): 1.27
- binding enhanced, mutant vs wild type (DRD2 F1103.28L; DRD2 Phe110^3.28Leu vs wild-type DRD2): 18.65 fold
- ΔpKi (mutant-WT) (DRD2 V1113.29A): -0.26
- Ki (DRD3 wild-type): 186 nM
- Fig_1a competition binding curve, source data (DRD3 wild-type; M -6): 32.8337 and 26.7408 and 38.6364 and 33.7041 and 31.0928
- Fig_1a competition binding curve, source data (DRD3 wild-type; M -7): 71.7118 and 82.4468 and 88.2495 and 78.675 and 74.323 and 84.4778
- Fig_1a competition binding curve, source data (DRD3 wild-type; M -8.5): 107.108 and 98.6944 and 100.725 and 87.3791 and 104.497 and 101.596
- Fig_1a competition binding curve, source data (DRD3 wild-type; M -9): 98.4043 and 97.5338 and 93.7621 and 84.7679 and 88.8298 and 89.7002
- Fig_1a competition binding curve, source data (DRD3 wild-type; M -9.5): 87.3791 and 78.3849 and 90.2805 and 81.5764 and 85.058 and 98.1141
- Fig_1a competition binding curve, source data (DRD3 wild-type; M -10): 76.9342 and 89.7002 and 81.8665 and 72.2921 and 84.1876 and 72.0019
- Fig_1a competition binding curve, source data (DRD3 wild-type; M -11): 74.6132 and 85.6383 and 84.7679 and 77.8046 and 89.7002 and 91.441
- Fig_1a competition binding curve, source data (DRD3 wild-type; M -12): 84.7679 and 85.9284 and 102.466 and 78.0948 and 88.2495
- Fig_1a competition binding curve, source data (DRD3 wild-type; M -13): 63.0077 and 75.4836 and 75.1934 and 78.675 and 77.5145 and 81.2863
- Ki [1]: 170 nM
- Fig_1a competition binding curve, source data ([1]; M -7): 75.0526 and 67.9047 and 62.8591 and 59.9159 and 75.8935
- Fig_1a competition binding curve, source data ([1]; M -8): 91.8711 and 84.3027 and 93.5529 and 96.4962
- Fig_1a competition binding curve, source data ([1]; M -8.5): 103.224 and 99.4394 and 102.803 and 91.8711
- Fig_1a competition binding curve, source data ([1]; M -9): 79.2572 and 91.8711 and 89.7687 and 85.9846 and 96.9166 and 113.735
- Fig_1a competition binding curve, source data ([1]; M -9.5): 89.7687 and 87.246 and 104.905 and 87.6664 and 93.1325 and 88.9278
- Fig_1a competition binding curve, source data ([1]; M -10): 74.6321 and 83.0413 and 75.8935 and 70.4275 and 85.5641 and 84.3027
- Fig_1a competition binding curve, source data ([1]; M -11): 92.712 and 78.8367 and 85.1437 and 96.4962 and 77.9958 and 82.6209
- Fig_1a competition binding curve, source data ([1]; M -12): 77.1549 and 85.1437 and 89.7687 and 83.4618 and 81.3595
- Fig_1a competition binding curve, source data ([1]; M -13): 88.0869 and 85.5641 and 82.6209 and 79.6776 and 79.2572
- ΔpKi (mutant-WT) (DRD2 Y4087.35A): -0.10
- Ki (DRD3 F1063.28A): 5.37 nM
- ΔpKi (mutant-WT) (DRD3 F1063.28A; DRD3 F1063.28A vs DRD3 wild-type): 1.54
- binding affinity increased, mutant vs wild type (DRD3 F1063.28A; DRD3 Phe106^3.28Ala vs wild-type DRD3): 34.67 fold
- ΔpKi (mutant-WT) (DRD2 F1103.28W; DRD2 F1103.28W vs wild-type): -0.93
- binding reduced, mutant vs wild type (DRD2 F1103.28W; DRD2 Phe110^3.28Trp vs wild-type DRD2): 8.51 fold
- ΔpKi (mutant-WT) (DRD2 F1103.28Y; DRD2 F1103.28Y vs wild-type): -1.76
- binding reduced, mutant vs wild type (DRD2 F1103.28Y; DRD2 Phe110^3.28Tyr vs wild-type DRD2): 57.54 fold
- ΔpKi (mutant-WT) (DRD2 F1103.28A; DRD2 F1103.28A vs wild-type): 2.14
- affinity increase (binding enhanced), mutant vs wild type (DRD2 F1103.28A; DRD2 Phe110^3.28Ala vs wild-type DRD2): 144.18 fold
- ΔpKi (mutant-WT) (DRD2 F1103.28E): 0.03
- ΔpKi (mutant-WT) (DRD2 W100EL1A): -0.79
- Fig_1a competition binding curve, source data ([2]; M -4, replicates): -1.355 and 1.993 and -0.6377 and -1.594 and 3.428 and -1.8334
- Fig_1a competition binding curve, source data ([2]; M -7): 29.733 and 32.3635 and 33.0809 and 32.8418 and 34.0375 and 33.3201
- Fig_1a competition binding curve, source data ([2]; M -8): 78.2782 and 80.4304 and 73.2563 and 83.061 and 72.778 and 84.4958
- Fig_1a competition binding curve, source data ([2]; M -8.5): 93.8222 and 94.0614 and 107.453 and 92.6265 and 93.1048
- Fig_1a competition binding curve, source data ([2]; M -9): 100.279 and 96.4528 and 102.67 and 87.1264 and 100.04 and 104.584
- Fig_1a competition binding curve, source data ([2]; M -9.5): 97.4093 and 108.171 and 98.605 and 95.0179 and 103.388
- Fig_1a competition binding curve, source data ([2]; M -10): 91.5385 and 88.2344 and 89.4739
- Fig_1a competition binding curve, source data ([2]; M -11): 89.0395 and 93.1048 and 90.4743 and 90.2352 and 86.4089 and 84.7349
- Fig_1a competition binding curve, source data ([2]; M -12): 100.518 and 86.6481 and 95.4962 and 94.7788 and 98.1268 and 94.5397
- Fig_1a competition binding curve, source data ([2]; M -13): 93.8222 and 89.2786 and 87.6046 and 85.6915 and 92.3874 and 93.1048
